Literature values as cited in patent publication US20090092692A1, “The use of onion extracts to prevent and treat acute and chronic cardiac and vascular complications and their sequelae, as well as to resolve hematomas” (priority 2007, published 2009).

System: platelet
Settings: low doses of aspirin, vasoocclusive disease

CC(=O)Oc1ccccc1C(=O)O [aspirin, Acetyl salicylic acid]
incidence of major haemorrhage: less than 1% | major outcome (death or further MI): approximately 60%
